{"source": "patent US9307765B2", "about": "“Selective weed control using D-napropamide” (UPL Limited, priority 2013, dated 2016)", "assay_type_in_all_cases": "in vivo", "key": {"Poa annua": {"test_system": "Poa annua", "assay": "Pre-emergence glasshouse pot study, seedling emergence and growth (OECD guideline)", "conditions": "for Mean Final Foliar Fresh Weights Expressed as Percentage of Untreated Controls / Mean Final Foliar Fresh Weights: Poa annua; for Mean Final Foliar Fresh Weights: 21 days after 50% emergence, untreated 0.90", "description": "(§1) A study was carried out to determine the relative biological activity of the D and L isomers of Napropamide when applied pre-emergence to one monocotyledon and one dicotyledon species. Napropamide, containing 450 grammes active substance per liter (g a.s./L) formulated as a suspension concentrate and the D-isomer of Napropamide (1000 g a.s./L) were applied at a range of concentrations from 0.1575 to 1.26 kilograms of active substance per hectare (kg a.s/Ha).\n(§2) EC50 values in kg a.s./Ha were calculated from the dose response data using final foliar fresh weight data for each species and was used to determine the relative biological activity of the D and L isomers of Napropamide. The methodology was based on the OECD guideline […], according to the revision of July 2006 for seedling emergence and growth. The study was conducted to GLP standards.\n(§3) Seeds were sown directly into non-porous plastic pots containing the following mix of soil: 10 L of sterile loam+4 L of coarse grit (washed quartztite, nominal 4 mm)+10 L of sand. This soil mix was characterized as a sandy loam with an organic carbon content of 1.5% and pH of 7.2. Details of the plant species, number of seeds per pot and pot size are shown below. All seeds were sown 1-2 cm deep.\n(§4) The highest concentration of Napropamide was prepared by measuring a calculated volume by weight and diluting with tap water to the full required volume. Lower concentrations were prepared by serial dilution with water. D-Napropamide was prepared by dissolving the calculated weight in acetone and adding water to give the full required volume in 50:50 acetone+water. Lower concentrations were prepared by serial dilution with 50:50 acetone+water. D-Napropamide dissolved completely.\n(§5) The sprayer was calibrated within 24 hours prior to application by weight of 15 applications of water to six 86 mm ID petri dishes. The total weight of water over a known area enabled a simple calculation giving the volume rate to be made. The volume rate achieved was within the range specified in the study plan (200 L/Ha±10%).\n(§6) Replication was 5 pots per treatment for each plant species. After application, pots were placed on the bench in glasshouse in randomized blocks. Plants were assessed for emergence, mortality and visual injury (expressed as a percentage of the untreated control: 0%=no injury, 1-39%=slight injury, 40-69%=moderate injury, 70-99%=severe injury and 100%=all plants dead) at 14 and 21 days after 50% emergence in the untreated controls. Fresh weights (biomass above soil level) were also recorded 21 days after 50% emergence in the untreated controls. Plants were fully turgid at the time of harvest.\n(§7) Assessment data was recorded on pro-forma sheets and entered into Gylling ARM 7 software. EC50 values were calculated using audited means data from the final assessments (21 day). Gylling ARM 7.0 software used a simple probit—maximum likelihood estimation method with 99% confidence level. The EC50 values generated were then visually checked against the means data table to verify they appeared correct."}, "Stellaria media": {"test_system": "Stellaria media", "assay": "Pre-emergence glasshouse pot study, seedling emergence and growth (OECD guideline)", "conditions": "for Mean Final Foliar Fresh Weights Expressed as Percentage of Untreated Controls / Mean Final Foliar Fresh Weights: Stellaria media; for Mean Final Foliar Fresh Weights: 21 days after 50% emergence, untreated 1.44", "description": "as §1, §2, §3, §4, §5, §6, §7"}, "Senecio vulgaris": {"test_system": "Senecio vulgaris", "assay": "Field trial on strawberries, pre-emergence, visual % control", "description": "(§8) Field trials were conducted on various moncotyledonous weeds and dicotyledonous weeds and the effect of D-isomer of Napropamide was studied to understand the selective and effective control of dicotyledonous weeds over monocotyledonous weeds. The effect of D-isomer of Napropamide in comparison to racemic napropramide and untreated was studied, which is concluded hereinbelow:\n(§9) Several small plot replicated trials were carried out to evaluate and/or compare the efficacy of D-Napropamide against a range of indicated annual broadleaved and grass weed species in the indicated crops. No problems were encountered during mixing or application of any of the product formulations or tank mixtures under test.\n(§10) In each of the reported data, the homogeneity of variance was tested by Bartlett's test. Wherever this test indicated no homogeneity of variance, the transformed values were used for analysis of variance. Assessment data was then analyzed using a two-way analysis of variance (ANOVA) on untransformed and transformed data. The probability of no significant differences occurring between treatment means was calculated as the F probability value (p(F)). A mean comparison test was only performed and reported when the treatment of F that was calculated during analysis of variance was significant at the observed significance level specified for the mean comparison test. Where the data was transformed, treatment means in the reports were presented in their detransformed state, with the appropriate letter test and mean descriptions (LSD and standard deviation) derived from the transformed ANOVA.\n(§11) Trial was carried out on strawberries to evaluate the efficacy and selectivity of D-Napropamide and equivalent rate of Devrinol (Napropramide) applied pre-emergence. […]"}, "Papaver rhoeas": {"test_system": "Papaver rhoeas", "assay": "Field trial on strawberries, pre-emergence, visual % control", "description": "as §8, §9, §10, §11"}, "[1]": {"conditions": "rate 0.1575 kg/Ha pre-emergence"}, "[2]": {"conditions": "monocotyledonous weeds (Poa annua EC50)"}, "[3]": {"conditions": "dicotyledonous weeds (Stellaria media EC50)"}, "[4]": {"conditions": "3.0 L/Ha of 450 g/L formulation"}, "[5]": {"conditions": "4.2 L/Ha of 450 g/L formulation"}, "[6]": {"conditions": "8.5 L/Ha of 450 g/L formulation"}}}
{"smiles": "CCN(CC)C(=O)[C@@H](C)Oc1cccc2ccccc12", "note": "[D-Napropamide, D-(−)-N,N-diethyl-2-(α-naphthoxy)propionamide]", "values": [{"measurement": "EC50 based on the final fresh weights", "setting": "Poa annua; Poa annua (monocot), 21 day assessment, probit", "value": 0.44, "unit": "kg/Ha"}, {"measurement": "Mean Final Foliar Fresh Weights Expressed as Percentage of Untreated Controls", "setting": "Poa annua; rate 0.1575 kg/Ha", "value": 100, "unit": "%"}, {"measurement": "Mean Final Foliar Fresh Weights", "setting": "Poa annua; [1]", "value": 0.93, "unit": "g"}, {"measurement": "Mean Final Foliar Fresh Weights Expressed as Percentage of Untreated Controls", "setting": "Poa annua; rate 0.315 kg/Ha", "value": 71, "unit": "%"}, {"measurement": "Mean Final Foliar Fresh Weights", "setting": "Poa annua; rate 0.315 kg/Ha pre-emergence", "value": 0.64, "unit": "g"}, {"measurement": "Mean Final Foliar Fresh Weights Expressed as Percentage of Untreated Controls", "setting": "Poa annua; rate 0.630 kg/Ha", "value": 50, "unit": "%"}, {"measurement": "Mean Final Foliar Fresh Weights", "setting": "Poa annua; rate 0.63 kg/Ha pre-emergence", "value": 0.45, "unit": "g"}, {"measurement": "more active than L-Napropamide", "setting": "Poa annua; [2]", "value": "~2.86", "unit": "times"}, {"measurement": "times more active than racemic Napropamide", "setting": "Poa annua; [2]", "value": "about 1.63 times"}, {"measurement": "EC50 based on the final fresh weights", "setting": "Stellaria media; Stellaria media (dicot), 21 day assessment, probit", "value": 0.054, "unit": "kg/Ha"}, {"measurement": "Mean Final Foliar Fresh Weights Expressed as Percentage of Untreated Controls", "setting": "Stellaria media; rate 0.1575 kg/Ha", "value": 35, "unit": "%"}, {"measurement": "Mean Final Foliar Fresh Weights", "setting": "Stellaria media; [1]", "value": 0.498, "unit": "g"}, {"measurement": "Mean Final Foliar Fresh Weights Expressed as Percentage of Untreated Controls", "setting": "Stellaria media; rate 0.315 kg/Ha", "value": 14, "unit": "%"}, {"measurement": "Mean Final Foliar Fresh Weights", "setting": "Stellaria media; rate 0.315 kg/Ha pre-emergence", "value": 0.198, "unit": "g"}, {"measurement": "Mean Final Foliar Fresh Weights Expressed as Percentage of Untreated Controls", "setting": "Stellaria media; rate 0.630 kg/Ha", "value": 12, "unit": "%"}, {"measurement": "Mean Final Foliar Fresh Weights", "setting": "Stellaria media; rate 0.63 kg/Ha pre-emergence", "value": 0.17, "unit": "g"}, {"measurement": "times more active than L-Napropamide", "setting": "Stellaria media; [3]", "value": "~23.33", "unit": "times"}, {"measurement": "times more active than racemic Napropamide", "setting": "Stellaria media; [3]", "value": "about 4.07 times"}, {"measurement": "Percentage Control at 70 DAA", "setting": "Senecio vulgaris; [4]", "value": 75.0, "unit": "%"}, {"measurement": "Percentage Control at 70 DAA", "setting": "Senecio vulgaris; [5]", "value": 50.0, "unit": "%"}, {"measurement": "Percentage Control at 70 DAA", "setting": "Senecio vulgaris; [6]", "value": 75.0, "unit": "%"}, {"measurement": "Conclusion: efficacy in control vis-à-vis Napropamide at an equivalent dosage", "setting": "Senecio vulgaris; Senecio vulgaris", "value": "surprising efficacy"}, {"measurement": "Percentage Control at 70 DAA", "setting": "Papaver rhoeas; [4]", "value": 71.7, "unit": "%"}, {"measurement": "Percentage Control at 70 DAA", "setting": "Papaver rhoeas; [5]", "value": 95.0, "unit": "%"}, {"measurement": "Percentage Control at 70 DAA", "setting": "Papaver rhoeas; [6]", "value": 97.5, "unit": "%"}, {"measurement": "Conclusion: efficacy in control vis-à-vis Napropamide at an equivalent dosage", "setting": "Papaver rhoeas; Papaver rhoeas", "value": "surprising efficacy"}]}
